How the values were obtained:
[1] = tested on: MET; assay: MET phosphorylation in SHEP neuroblastoma cells; assay type: cell-based, human; conditions: SHEP cells
Experimental: FIG. 7B: SHEP cells were grown with GDNF (10 ng/ml (lanes 2-4) or 5 pg/ml (lanes 5-7)) or HGF (10 ng/ml (lanes 8-9)) in the presence of PP2 (1 μM (lanes 3 and 6) and 10 μM (lanes 4 and 7)). To exclude a possible cytotoxic effect of the solvent, DMSO was added to the controls. […] The numbers below the lane indicate the fold of induction of MET tyrosine kinase. The results are representative of three independent experiments.
(§1) To detect MET activation, GFRα1- and RET/GFRα1-expressing MDCK or SHEP cells were starved overnight in MEM or RPMI 1640 with 1% FCS, respectively, and in serum-free medium for 2 h prior the induction. After 15 min incubation at 37° C. with GDNF (at indicated concentrations) or with 50 ng/ml HGF, cells were lysed as described. Cleared cell lysates were incubated with anti-MET antibodies (Santa Cruz Biotechnologies, Inc.) overnight at 4° C. Immunoprecipitates were collected with protein A-SEPHAROSE (Amersham Pharmacia Biotech), washed, separated by SDS-PAGE and transferred to HYBOND-ECL membranes. Membranes were immunoblotted with anti-phospho-tyrosine antibodies (Upstate Group Inc.) or anti-MET antibodies.
(§2) For all experiments, densitometry and quantifications were performed using TINA 2.0 program (Raytest, Straubenhardt, Germany).
(§3) For the inhibition of MET, and Src activation, SHEP or GFRα1- and RET/GFRα1-expressing MDCK cells were starved as described above. 1 or […] of the inhibitor PP2 (Calbiochem) was added 30 min before induction by GDNF or HGF. DMSO (dimethyl sulfoxide) was added to the positive controls together with GDNF or HGF.

[2] = tested on: MET; assay: MET phosphorylation in MDCK cells (immunoprecipitation, Western blotting); assay type: cell-based, dog
Experimental: as §1
Alternatively, 30 μg of protein was incubated overnight at 4° C. with 10 μl Immobilized Phospho-Tyrosine Monoclonal Antibodies (Cell Signalling, NEB). Immunocomplexes were washed and analysed as described.
as §2, §3

[3] = target: MET (Homo sapiens, UniProt P08581); conditions: Villa-Moruzzi et al., 1993; cited from earlier work
Chain of MET (Homo sapiens, UniProt P08581) (P08581 25-1390): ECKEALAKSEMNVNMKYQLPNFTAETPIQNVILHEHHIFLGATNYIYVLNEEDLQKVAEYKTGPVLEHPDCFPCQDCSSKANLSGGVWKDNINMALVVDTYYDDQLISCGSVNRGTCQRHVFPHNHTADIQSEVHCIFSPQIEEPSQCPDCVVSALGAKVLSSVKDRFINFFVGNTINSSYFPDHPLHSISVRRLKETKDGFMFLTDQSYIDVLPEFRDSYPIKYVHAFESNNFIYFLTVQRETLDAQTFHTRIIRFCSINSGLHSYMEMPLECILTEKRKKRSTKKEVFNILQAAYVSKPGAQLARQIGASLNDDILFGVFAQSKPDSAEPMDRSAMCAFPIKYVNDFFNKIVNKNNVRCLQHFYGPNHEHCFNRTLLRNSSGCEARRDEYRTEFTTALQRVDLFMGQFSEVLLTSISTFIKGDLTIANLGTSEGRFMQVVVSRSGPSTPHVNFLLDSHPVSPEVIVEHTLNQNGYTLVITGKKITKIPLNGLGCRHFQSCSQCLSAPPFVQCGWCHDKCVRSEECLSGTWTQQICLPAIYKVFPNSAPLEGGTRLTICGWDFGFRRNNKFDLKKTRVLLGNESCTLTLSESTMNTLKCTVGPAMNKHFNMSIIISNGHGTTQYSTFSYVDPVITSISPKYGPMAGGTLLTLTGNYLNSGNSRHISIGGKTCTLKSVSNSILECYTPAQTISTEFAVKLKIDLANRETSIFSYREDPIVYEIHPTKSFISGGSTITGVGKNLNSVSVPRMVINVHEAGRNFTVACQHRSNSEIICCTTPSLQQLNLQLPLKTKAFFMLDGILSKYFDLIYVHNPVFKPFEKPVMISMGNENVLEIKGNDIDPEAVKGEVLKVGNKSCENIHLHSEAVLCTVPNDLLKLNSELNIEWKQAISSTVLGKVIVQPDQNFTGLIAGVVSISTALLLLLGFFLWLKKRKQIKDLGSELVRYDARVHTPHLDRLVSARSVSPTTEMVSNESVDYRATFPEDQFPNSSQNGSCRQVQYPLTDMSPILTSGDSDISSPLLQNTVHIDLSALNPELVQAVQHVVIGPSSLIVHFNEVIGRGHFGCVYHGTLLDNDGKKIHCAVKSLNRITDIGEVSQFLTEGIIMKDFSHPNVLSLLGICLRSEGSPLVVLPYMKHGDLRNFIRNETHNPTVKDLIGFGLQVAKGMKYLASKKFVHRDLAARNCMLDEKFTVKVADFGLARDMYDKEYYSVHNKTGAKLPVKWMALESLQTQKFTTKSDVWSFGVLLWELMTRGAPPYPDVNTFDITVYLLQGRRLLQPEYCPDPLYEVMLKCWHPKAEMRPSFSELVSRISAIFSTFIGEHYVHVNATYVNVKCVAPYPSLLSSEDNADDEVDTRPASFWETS

[4] = tested on: wild-type MDCK cells; assay: Branching tubule formation assay in 3-D collagen gel; assay type: cell-based, dog; conditions: 3-D collagen gel
Experimental: (§4) From the total amount of cysts in the field, the percentage of cysts with long branches was calculated. Only branches with lengths of more than two cyst diameters were counted.
(§5) Trypsinized cells were mixed 1:3 with collagen type I solution and plated. MEM with 10% FCS was overlaid on the gels with or without GDNF (Cephalon Inc. or R&D Systems, Inc.) or 50 ng/ml HGF. Cells in collagen were cultured for 3 days; GDNF-containing medium was changed daily. For quantification, cells were cultured for 3 days, fixed by 3% glutaraldehyde in PBS and counted under a light microscope.
(§6) To avoid the effect of possible contamination of GDNF preparation, recombinant GDNF from two different sources were tested. One tested GDNF was expressed in baculovirus-infected insect cells (Cephalon Inc.), the other was expressed in mouse myeloma cell line NSO (R&D Systems, Inc.).

[5] = tested on: wild-type MDCK cells; conditions: Stoker et al., 1987; cited from earlier work
[6] = target: T1, MET (Chlorocebus aethiops, UniProt Q2IBA6); assay: 125I-labelled GDNF and HGF binding, chemical crosslinking, anti-MET immunoprecipitation
T1 construct: different combinations of the MET β-subunit (140 kDa), Met-αβ heterodimer (190 kDa) and HGF complexes; endogenous in cells; host or cells: COS7 cells (wild type for 125I-HGF; transfected with pc3-GFRα1/GFP for 125I-GDNF)
T1 sequence (Q2IBA6 25-1381): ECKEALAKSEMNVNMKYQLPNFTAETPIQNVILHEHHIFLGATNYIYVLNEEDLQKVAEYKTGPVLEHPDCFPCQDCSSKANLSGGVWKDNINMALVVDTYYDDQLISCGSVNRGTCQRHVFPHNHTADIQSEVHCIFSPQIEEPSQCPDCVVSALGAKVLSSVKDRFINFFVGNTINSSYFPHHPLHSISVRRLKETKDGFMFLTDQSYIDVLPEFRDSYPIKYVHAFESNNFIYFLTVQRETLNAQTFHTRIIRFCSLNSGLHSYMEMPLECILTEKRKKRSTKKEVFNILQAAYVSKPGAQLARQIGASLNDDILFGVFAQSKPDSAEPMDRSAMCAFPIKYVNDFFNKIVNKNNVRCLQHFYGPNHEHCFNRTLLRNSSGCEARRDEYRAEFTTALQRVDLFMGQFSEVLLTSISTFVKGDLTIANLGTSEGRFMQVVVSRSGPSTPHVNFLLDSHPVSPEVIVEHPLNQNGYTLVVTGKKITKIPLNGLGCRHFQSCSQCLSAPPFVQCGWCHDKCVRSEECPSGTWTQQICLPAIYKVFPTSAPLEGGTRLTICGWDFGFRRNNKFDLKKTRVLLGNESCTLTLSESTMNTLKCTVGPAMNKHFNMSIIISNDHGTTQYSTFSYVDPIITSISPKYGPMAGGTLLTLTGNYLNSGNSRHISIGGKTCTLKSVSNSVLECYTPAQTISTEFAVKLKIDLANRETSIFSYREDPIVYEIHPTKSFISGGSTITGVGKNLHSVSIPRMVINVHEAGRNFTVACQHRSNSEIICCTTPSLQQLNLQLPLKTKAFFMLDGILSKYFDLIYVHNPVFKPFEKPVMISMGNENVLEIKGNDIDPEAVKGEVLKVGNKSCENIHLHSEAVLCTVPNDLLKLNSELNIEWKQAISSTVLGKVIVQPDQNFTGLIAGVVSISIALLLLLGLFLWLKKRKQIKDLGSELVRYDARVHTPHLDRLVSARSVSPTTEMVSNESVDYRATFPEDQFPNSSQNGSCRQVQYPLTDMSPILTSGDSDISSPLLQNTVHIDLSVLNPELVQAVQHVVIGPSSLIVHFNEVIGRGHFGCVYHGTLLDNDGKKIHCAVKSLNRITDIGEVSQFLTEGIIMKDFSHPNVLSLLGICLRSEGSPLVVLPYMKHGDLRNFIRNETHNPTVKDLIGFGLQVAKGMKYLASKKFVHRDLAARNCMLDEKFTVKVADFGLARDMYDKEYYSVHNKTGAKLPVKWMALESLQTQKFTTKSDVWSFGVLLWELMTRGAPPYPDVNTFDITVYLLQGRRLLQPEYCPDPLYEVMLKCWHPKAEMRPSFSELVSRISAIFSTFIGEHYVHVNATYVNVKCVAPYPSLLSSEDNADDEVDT
Experimental: Binding of ^125I-GDNF to COS7 cells transfected with GFRα1, and ^125-HGF to wild-type COS7, followed by cross-linking with EDC together with sulfo-NHS. Inmunoprecipitates with anti-MET antibodies (IP-Met) were analysed by SDS-PAGE under reducing conditions. ^125I-HGF α subunit and proHGF are marked by arrows. ^125I-HGF/MET complexes are denoted by arrow heads. The results are representative of five independent experiments.
GDNF and HGF were enzymatically iodinated with [^125I]NaI (Amersham Pharmacia Biotech) with lactoperoxidase to a specific activity of 100.000 cpm/ng as described (31). COS7 cells were transfected with pc3-GFRα1/GFP two days prior the assay. 2 nM of ^125I-GDNF or 1 nM of ^125I-HGF were allowed to bind to cell monolayers for 1-2 h on ice in binding buffer (DMEM/15 mM HEPES, pH 7.5; 0.2% BSA), washed, and chemically cross-linked for 30 min at room temperature using BS^3 ([Bis(sulfosuccinimidyl)suberate]), DSS ((Disulfosuccinimidyl)suberate), DSP (3,3-Dithio-bis-(sulfosuccinimidyl)propionate) or EDC ((1-Ethyl-3-[3-dimethylaminopropyl]carbodiimide Hydrochloride)) with sulfo-NHS (N-Hydroxysulfosuccinimide) (Pierce). The non-specific binding of GDNF was estimated by the amount of ^125I-GDNF binding to cells in the presence of 300 n M unlabeled GDNF. Cells were washed, lysed and immunoprecipitated with anti-MET antibodies as described. Gels were dried and analyzed by phosphorimaging in a BAS Reader 1800 (Fuji).

[7] = tested on: GFRα1-expressing MDCK cells; assay: Branching tubule formation assay in 3-D collagen gel; assay type: cell-based, dog; conditions: ligand 100 ng/ml; 3-D collagen gel
Experimental: as §4
(§7) FIG. 2C: Dose-dependence of GDNF-induced branching of GFRα1- and RET/GFRα1-expressing MDCK cells. GDNF concentrations are per ml (x-axis). Results are reported as fold of branching cysts count over the non-induced control. Means±standard errors of the mean of five to eight counted fields are shown. The results are representative of five (A and B) and three (C) independent experiments, p<0.001.
as §5, §6

[8] = tested on: RET/GFRα1-expressing MDCK cells; assay: as above; assay type: cell-based, dog; conditions: ligand 100 ng/ml; 3-D collagen gel
Experimental: as §4, §7, §5, §6

[9] = GFRα1- and RET/GFRα1-expressing MDCK cells, data not shown

## CC(C)(C)n1nc(-c2ccc(Cl)cc2)c2c(N)ncnc21 [PP2, reference compound]
[1]; PP2 1 μM
  effect on GDNF-dependent phosphorylation of MET: strongly reduced
[1]
  effect on HGF-induced MET phosphorylation: did not affect
[2]; [9]
  effect on GDNF-induced MET activation: inhibited
  effect on HGF-induced MET phosphorylation: but not the HGF-induced MET phosphorylation

## HGF: hepatocyte growth factor (Sigma); binds to and activates MET receptor tyrosine kinase
[3]
  concentration at which MET is saturated: 0.5 nM
[4]; HGF 50 ng/ml
  branching tubule formation: only branch on exposure to HGF
[2]; mock-transfected MDCK cells
  MET phosphorylation: only HGF phosphorylated MET
[5]
  chemotaxis: induces chemotaxis

## ^125I-HGF: HGF enzymatically iodinated with [125I]NaI with lactoperoxidase [reference compound]
[6]; COS7 cells, reducing conditions, positive control
  cross-linked complexes with MET: approximately 200 kDa, 250 kDa and 340 kDa complexes

B1: ^125I-GDNF: GDNF enzymatically iodinated with [125I]NaI with lactoperoxidase (protein, UniProt P39905 78-211, looked up)
Glial cell line-derived …: SPDKQMAVLPRRERNRQAAAANPENSRGKGRRGQRGKNRGCVLTAIHLNVTDLGLGYETKEELIFRYCSGSCDAAETTYDKILKNLSRNRRLVSDKVGQACCRPIAFDDDLSFLDDNLVYHILRKHSAKRCGCI
modifications: 125I label
notes: GDNF enzymatically iodinated with [125I]NaI with lactoperoxidase
[6]; GFRα1-expressing MDCK, SHEP or COS7 cells, and NIH 3T3 cells transiently transfected with GFRα1, EDC with sulfo-NHS, BS3, DSS, DSP
  cross-linked complexes with MET: No high molecular weight complexes were revealed

B2: PSPN: persephin, the ligand for GFRα4, not known to interact with GFRα1 (protein, UniProt O60542 22-156, looked up)
Persephin: WGPDARGVPVADGEFSSEQVAKAGGTWLGTHRPLARLRRALSGPCQLWSLTLSVAELGLGYASEEKVIFRYCAGSCPRGARTQHGLALARLQGQGRAHGGPCCRPTRYTDVAFLDDRHRWQRLPQLSAAACGCGG
[4]; ligand 100 ng/ml
  branching tubule formation: does not induce branching
[7]
  branching tubule formation: did not evoke branching
[8]
  branching tubule formation: did not evoke branching

— patent US20080070264A1, “Intracellular Signaling-Induced Ret-Independent Gdnf Receptor-Effected Morphological Changes” (JPMORGAN CHASE BANK N.A., priority 2003, published 2008)
